{"source": "patent US4218443A", "about": "“Polyether ionophores as antiobesity and hypotriglyceridemic agents” (Hoffmann-La Roche Inc., priority 1979, dated 1980)", "key": {"[1]": {"test_system": "hepatic fatty acid synthesis", "assay": "In vivo hepatic fatty acid synthesis in meal-fed rats", "design": "species or system Charles River rat", "conditions": "sodium salt, mean ± SE", "protocol": "(§1) In the following examples, female rats (Charles River CD strain, 180-200 g) were housed individually in wire bottom cages in a temperature (22°) and light (12 hr light and 12 hr dark) regulated room. They had free access to Purina Rodent Chow and water."}, "[2]": {"test_system": "meal-fed Charles River rats", "assay": "Food consumption and serum parameters in meal-fed rats (in vivo fatty acid synthesis experiments)", "design": "species or system Charles River rat", "conditions": "sodium salt, mean ± SE", "protocol": "as §1\nFaster enzymatic procedure for serum triglycerides, Clinical Chemistry, 21: 1983-1985], cholesterol, [C. C. Allain, L. Poon, S. G. Chan, W. Richmond and P. Fu (1974). Enzymatic determination of total serum cholesterol, Clinical Chemistry, 20: 470-475] and glucose, [R. Konig, H. Dauwalder and R. Richterich (1971). Vergleichende Bestimmunogen der Uringlucosekonzentration mit der Polarimetrie und einer enzymatischen Methode (Hexokinase/Glucose-6-Phosphat-Dehydrogenase), Schweiz. Med. Wschr., 101: 860-866] by enzymatic procedures."}, "pancreatic lipase": {"target": "T1, pancreatic lipase (Rattus norvegicus, UniProt P27657)", "T1 construct": "stimulated to release pancreatic proteins by addition of 10^-5 M carbachol; from tissue; host or cells: pancreatic lobules of fasted Charles River female rats; released pancreatic juice, centrifuged", "T1 sequence (P27657 17-465)": "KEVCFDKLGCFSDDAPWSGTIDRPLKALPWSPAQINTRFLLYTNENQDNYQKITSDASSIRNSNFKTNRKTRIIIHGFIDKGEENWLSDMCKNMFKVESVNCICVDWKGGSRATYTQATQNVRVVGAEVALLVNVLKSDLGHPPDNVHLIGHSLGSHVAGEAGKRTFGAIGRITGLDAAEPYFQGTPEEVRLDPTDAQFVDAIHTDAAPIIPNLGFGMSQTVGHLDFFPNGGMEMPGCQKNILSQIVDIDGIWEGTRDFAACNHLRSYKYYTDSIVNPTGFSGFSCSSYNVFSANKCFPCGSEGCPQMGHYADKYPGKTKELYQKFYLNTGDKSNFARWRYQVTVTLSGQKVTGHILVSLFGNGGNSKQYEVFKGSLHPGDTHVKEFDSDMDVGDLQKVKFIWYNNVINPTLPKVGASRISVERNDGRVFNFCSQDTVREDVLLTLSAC", "assay": "In vitro pancreatic lipase screen ([14C]-triolein assay)", "format": "biochemical", "conditions": "read-out: Pancreatic Lipase Activity I50", "protocol": "The method for assaying pacreatic lipase in vitro using [^14 C]-triolein was based on the method of Garfinkel and Schotz for lipoprotein lipase, [A. S. Garfinkel and M. C. Schotz (1972). […] Glycerol tri[1-^14 C]oleate (32 mM) was emulsified in 0.2 M Tris-HCl pH 8 containing 0.15 M NaCl, bovine serum albumin (15 mg/ml) and sodium taurocholate (1.4 mM) by sonication for three, one min intervals at 80 watts. Final assay volume was 1.0 ml. The reaction was initiated by the addition of enzyme and was allowed to proceed for 10 min. The reaction was linear for up to 20 min. The liberated free fatty acids were extracted into 0.1 M KOH and quantitated in a liquid scintillation counter using 2,5-bis-2-(5-tertbutylbenzoxazolyl)-tniophene (BBOT) scintillation fluid (Yorktown Research, South Hackensack, N.J.).\nIonophores were added to the above assay as solutions in either 90% ethanol or water, pH 8; 90% ethanol had no effect on the enzyme activity assayed by either method."}}, "data": [{"smiles": "CC[C@@H](C(=O)[C@@H](C)[C@@H](O)[C@H](C)CCc1c([N+](=O)[O-])cc(C)c(O)c1[N+](=O)[O-])[C@H]1O[C@](CC)([C@H]2CC[C@](O)(CC)[C@H](C)O2)C[C@@H]1C", "note": "[Dinitrodescarboxylasalocid]", "values": [{"measurement": "Fatty Acid Synthesis 3H2O converted", "setting": "[1]; 60 mg/kg i.p.", "result": "12.5 ± 2.1 μmoles per 1 g liver in 30 min"}, {"measurement": "Fatty Acid Synthesis [14C]alanine converted", "setting": "[1]; 60 mg/kg i.p.", "result": "208 ± 42 nmoles per 1 g liver in 30 min"}, {"measurement": "Fatty Acid Synthesis 3H2O converted", "setting": "[1]; Experiment 1, 240 mg/kg p.o.", "result": "17.1 ± 3.5 μmoles per 1 g liver per 30 mi"}, {"measurement": "Fatty Acid Synthesis [14C]alanine converted", "setting": "[1]; Experiment 1, 240 mg/kg p.o.", "result": "250 ± 87 nmoles per 1 g liver per 30 mi"}, {"measurement": "Fatty Acid Synthesis 3H2O converted", "setting": "[1]; Experiment 2, 60 mg/kg p.o.", "result": "17.0 ± 3.1 μmoles per 1 g liver per 30 mi"}, {"measurement": "Fatty Acid Synthesis [14C]alanine converted", "setting": "[1]; Experiment 2, 60 mg/kg p.o.", "result": "711 ± 130 nmoles per 1 g liver per 30 mi"}, {"measurement": "Fatty Acid Synthesis 3H2O converted", "setting": "[1]; Experiment 2, 120 mg/kg p.o.", "result": "18.7 ± 2.1 μmoles per 1 g liver per 30 mi"}, {"measurement": "Fatty Acid Synthesis [14C]alanine converted", "setting": "[1]; Experiment 2, 120 mg/kg p.o.", "result": "696 ± 80 nmoles per 1 g liver per 30 mi"}, {"measurement": "Fatty Acid Synthesis 3H2O converted", "setting": "[1]; Experiment 2, 240 mg/kg p.o.", "result": "12.6 ± 1.4 μmoles per 1 g liver per 30 mi"}, {"measurement": "Fatty Acid Synthesis [14C]alanine converted", "setting": "[1]; Experiment 2, 240 mg/kg p.o.", "result": "510 ± 64 nmoles per 1 g liver per 30 mi"}, {"measurement": "Food Consumption", "setting": "[2]; 60 mg/kg i.p.", "result": "15.7 ± 0.4", "unit": "g"}, {"measurement": "Food Consumption", "setting": "[2]; Experiment 1, 240 mg/kg p.o.", "result": "11.0 ± 0.8", "unit": "g"}, {"measurement": "Serum Cholesterol", "setting": "[2]; Experiment 1, 240 mg/kg p.o.", "result": "85 ± 7", "unit": "mg/100 ml"}, {"measurement": "Serum Glucose", "setting": "[2]; Experiment 1, 240 mg/kg p.o.", "result": "194 ± 9", "unit": "mg/100 ml"}, {"measurement": "Serum Triglycerides", "setting": "[2]; Experiment 1, 240 mg/kg p.o.", "result": "42 ± 5", "unit": "mg/100 ml"}, {"measurement": "Food Consumption", "setting": "[2]; Experiment 2, 60 mg/kg p.o.", "result": "8.8 ± 1.0", "unit": "g"}, {"measurement": "Serum Cholesterol", "setting": "[2]; Experiment 2, 60 mg/kg p.o.", "result": "84 ± 3", "unit": "mg/100 ml"}, {"measurement": "Serum Glucose", "setting": "[2]; Experiment 2, 60 mg/kg p.o.", "result": "165 ± 6", "unit": "mg/100 ml"}, {"measurement": "Serum Triglycerides", "setting": "[2]; Experiment 2, 60 mg/kg p.o.", "result": "40 ± 4", "unit": "mg/100 ml"}, {"measurement": "Food Consumption", "setting": "[2]; Experiment 2, 120 mg/kg p.o.", "result": "10.7 ± 1.0", "unit": "g"}, {"measurement": "Serum Cholesterol", "setting": "[2]; Experiment 2, 120 mg/kg p.o.", "result": "82 ± 6", "unit": "mg/100 ml"}, {"measurement": "Serum Glucose", "setting": "[2]; Experiment 2, 120 mg/kg p.o.", "result": "168 ± 7", "unit": "mg/100 ml"}, {"measurement": "Serum Triglycerides", "setting": "[2]; Experiment 2, 120 mg/kg p.o.", "result": "31 ± 2", "unit": "mg/100 ml"}, {"measurement": "Food Consumption", "setting": "[2]; Experiment 2, 240 mg/kg p.o.", "result": "9.4 ± 1.1", "unit": "g"}, {"measurement": "Serum Cholesterol", "setting": "[2]; Experiment 2, 240 mg/kg p.o.", "result": "76 ± 7", "unit": "mg/100 ml"}, {"measurement": "Serum Glucose", "setting": "[2]; Experiment 2, 240 mg/kg p.o.", "result": 183, "unit": "mg/100 ml"}, {"measurement": "Serum Triglycerides", "setting": "[2]; Experiment 2, 240 mg/kg p.o.", "result": "31 ± 5", "unit": "mg/100 ml"}, {"measurement": "IC50", "setting": "pancreatic lipase", "result": 400, "unit": "µM"}]}]}
